From patent US20090029982A1, “PROTEIN KINASE INHIBITORS” (SUPERGEN, INC., priority 2005, published 2009)

Experiments:
[1] = test system: HT-29 human colon cancer cells; test: HT-29 xenograft study in mice; type: in vivo; conditions: 25 mg/kg intraperitoneally, q.d.×5 for two weeks
Method: In order to evaluate the effectiveness of MP277 against tumor cells in a living system, a xenograft study was performed in mice. 1×10^7 HT-29 human colon cancer cells were injected subcutaneously into 16 Nu/Nu athymic nude mice (Charles River Laboratories, Wilmington, Mass.). Tumor volume was measured according to the formula ((Width)^2*Length)/2. Tumors were allowed to grow to approximately 100 mm^3 in volume (Day 0), at which point mice were randomized to two groups: Eight mice were treated with 25 mg/kg MP277, while the other eight were given an equal volume of drug vehicle. For this study, the drug vehicle used was 60% propylene glycol, 30% polyethylene glycol 300, 10% ethanol with 150 mg/mL 2-hydroxypropyl-beta-cyclodextrin. Each mouse received 0.1 mL of drug or vehicle intraperitoneally on a q.d.×5 schedule for two weeks, with two days rest between cycles.

[2] = molecular target: T1, recombinant aurora-2 kinase (Homo sapiens, UniProt O14965); test: aurora-2 kinase inhibition assay (Kinase-Glo, ATP remaining); type: biochemical; conditions: Example 20, Table 2; 3 μM ATP, 62.5 μM Kemptide, 30° C., two hours; read-out: IC50 A2K
T1 construct: purchased Upstate, Lake Placid, N.Y; host or cells: sf9 cells
T1 sequence (O14965 1-403): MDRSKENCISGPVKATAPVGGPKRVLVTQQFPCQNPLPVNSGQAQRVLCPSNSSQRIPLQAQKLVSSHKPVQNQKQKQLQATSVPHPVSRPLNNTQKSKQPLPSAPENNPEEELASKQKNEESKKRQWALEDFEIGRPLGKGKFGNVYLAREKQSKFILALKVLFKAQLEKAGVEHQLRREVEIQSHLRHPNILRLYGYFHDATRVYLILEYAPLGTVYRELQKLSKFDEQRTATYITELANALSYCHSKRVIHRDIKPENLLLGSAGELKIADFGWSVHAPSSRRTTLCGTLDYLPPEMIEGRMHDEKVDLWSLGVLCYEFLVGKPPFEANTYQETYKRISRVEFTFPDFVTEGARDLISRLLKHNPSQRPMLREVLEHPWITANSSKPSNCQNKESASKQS
Method: In this assay kinase activity was determined by quantifying the amount of ATP remaining in solution following a kinase reaction by measuring the light units (LU) produced by luciferase using a luminometer. Percent inhibition was determined for individual compounds by comparing luminometer readings of drug-treated reactions to controls containing no drug (DMSO control) and no Aurora-2 enzyme (ATP control) in the following equation: […]
In a 50 μl reaction, recombinant aurora-2 kinase produced in sf9 cells (Upstate, Lake Placid, N.Y.) was incubated at 30° C. for two hours with 62.5 μM Kemptide (Calbiochem, San Diego, Calif.), 3 μM ATP (Invitrogen, Carlsbad, Calif.) and kinase reaction buffer (40 mM Tris-HCl, 10 mM MgCl2 and 0.1 μg/μl bovine serum albumin (BSA)). This reaction was carried out in the presence of drug substances, which had been previously diluted to desired concentrations in DMSO. […] Kinase activity is determined by quantifying the amount of ATP remaining in solution following the kinase reaction by measuring the light units (LU) produced by luciferase using a luminometer (Thermo-Electron, Vantaa, Finland).
Briefly, kinase activity was determined by quantifying the amount of ATP remaining in solution following a kinase reaction by measuring the light units (LU) produced by luciferase using a luminometer. […]

Row | Structure (SMILES) | toxicity noted through the duration of the study ([1]; nude mice) | inhibition of tumor growth in vivo ([1]; subcutaneous HT-29 xenograft, FIG. 1) | IC50 [2] [nM]
1 | CC(=O)NS(=O)(=O)c1ccc(NC(=S)N2CCN(c3ncnc4[nH]c5cc(C(F)(F)F)c(Cl)cc5c34)CC2)cc1 [Compound 1, 4-(6-Chloro-7-trifluoromethyl-9H-pyrimido[4,5-b]indol-4-yl)-piperazine-1-carbothioic acid (4-acetylsulfamoyl-phenyl)-amide] | No noticeable toxicity | effective for inhibiting tumor growth in vivo | 
2 | COc1cc2[nH]c3ncnc(N4CCN(C(=S)Nc5ccc(S(=O)(=O)NC(C)=O)cc5)CC4)c3c2cc1OC [Compound 2] |  |  | 5
